Experimental data published in patent US20250205324A1, “ANTIGENIC PEPTIDES FOR PREVENTION AND TREATMENT OF CANCER” (ENTEROME S.A., priority 2022, published 2025).
Entries after “also recorded” stand apart in the source; their conditions may differ.

Tests used:
HLA-A*0201 = biological target: T1, HLA-A*0201 (Homo sapiens, UniProt P04439, D140Y/D185E/D98H/E176V/E277Q/G131W/G231S/I119V/I121R/I166T/I218V/L300P/L318F/N151K/N90K/P208A/P217A/Q86G/Q94H/R138H/R169H/T345S); test: Affinity of the peptide to T2 cell line (HLA-A*0201 binding, FACS with anti-HLA-A2 antibody); conditions: T2 cells
T1 construct: human tumoral cell T2 which expresses the HLA-A*0201 molecule; endogenous in cells; host or cells: T2 cells (human, TAP1/2 negative)
Procedure: T2 cells (5·10^4 cells per well) are incubated with decreasing concentrations of peptides from 100 μM to 0.1 μM (4 points: 100 μM, 10 μM, 1 μM, 0.1 μM) in serum-free medium (TexMacs) supplemented with 100 ng/μl of 2 Microglobulin at 37° C. for 16 hours.
The analysis is achieved by FACS (Macsquant analyzer 10 or a Macsquant analyzer 16-Miltenyi).

[1] = test system: HHD DR1 HLA-A2 transgenic mice; test: ELISPOT-IFNγ assay on splenocytes of vaccinated HLA-A2 transgenic mice; assay type: in vivo, mouse; conditions: for immunogenicity: T cell response in ELISPOT-IFNγ: 30 nmol peptide + UCP2 helper in Montanide ISA 51 VG s.c., prime d0, boost d14, spleen d21, restimulation 10 μM; for cross-reactivity of induced T cells with the corresponding human peptide in ELISPOT-IFNγ: prime d0, boost d14, spleen d21, challenge with human peptide 10 μM
Procedure: Briefly, HLA-A2 HHD-DR1 humanized mice (C57BL/6JB2mtm1UnclAb−/−Tg(HLA-DRA, HLA-DRB1*0101)#GjhTg(HLA-A/H2-D/B2M)1 Bpe) were assigned randomly (based on mouse sex and age) to experimental groups, wherein each group was immunized with a specific vaccination peptide (vacc-pAg) combined to a common helper peptide (h-pAg UCP2; sequence: […]; SEQ ID NO: 39) (as outlined in Table 6 below).
The peptide formulation to be injected (emulsion) was prepared freshly on each day of injection and for each group. A mix for 10 animals was prepared using 2 mL luer lock syringes (4606701 V, B BRAUN) and luer lock female-female Combifix® Adapter (B. Braun, 5206634): 500 μL of peptide mixture in syringe 1 was emulsified with 500 μL of Montanide ISA 51 VG (Seppic) contained in syringe 2. The emulsification process was performed first by pushing the peptide mixture contained in syringe 1 into syringe 2 (containing Montanide) at very low speed. Transfer of the mixture from one syringe to another was then performed at very low speed during 6 cycles (one cycle corresponding to one passage from one syringe to another), and secondly at high speed, as fast as possible, for 1 minute. Each emulsion was prepared in excess to compensate for the dead volumes at injection.
The animals were immunized on day 0 (d0) with a prime injection, and on d14 with a boost injection. Each mouse was injected s.c. on the loose skin over the neck of the animals with 100 μL of an oil-based emulsion that contained: • 30 nmol of vacc-pAg and 30 or 100 μg of UCP2 helper peptide in 50 μL of a dedicated final solvent • Montanide ISA 51 VG (Seppic) added at 1:1 (v:v) ratio (50 μL per mouse).
Seven days after the boost injection (i.e. on d21), the animals were euthanized and the spleen was harvested. Splenocytes were prepared by mechanical disruption of the organ followed by 70 μm-filtering and Red blood cell lysis.
The cell suspensions were further used in an ELISPOT-IFN assay (Table 5). The cells were cultured in 200 μL of complete T cell medium. Experimental conditions (duplicates) were as follow: 2×10^5 total cells per well when cultured in presence of various pAg (10 μM) or medium-only; and 2×10^4 total cells when cultured in presence of the positive control PMA/lonomycin (PMA: Sigma P8139: 0.1 μM final; lonomycin: Sigma 10634: 1 μM final). The cultures were assessed for their capacity to secrete IFN (mouse IFN-ELISpotPLUS kit, Mabtech 3321-4APT-10), following the manufacturer's instructions (˜12-48h incubation time before performing the assay). The peptides used for restimulation are described in Table 7.
Spots were counted on a an iSpot Fluorospot Reader System (AID). Data plotting and statistical analysis were performed with the Prism-9 software (GraphPad Software Inc.).
The data were provided as a number of spots per 1·10^6 total T cells. The individual average values (obtained from the duplicates) were next used to plot the group average values. Statistical analysis for comparison (to the irrelevant peptide condition) were performed using unpaired non-parametric test (Mann Whitney) (**: p<0.01; *: p<0.05).

Sequence	Concentration of peptide that induces 20% of HLA-A2 expression (HLA-A*0201) [µM]	immunogenicity: T cell response in ELISPOT-IFNγ [1]	cross-reactivity of induced T cells with the corresponding human peptide in ELISPOT-IFNγ [1]
ALIFGQLLL [TOP2A-B2]	1.79	induced significant T cell responses; also recorded: strongly immunogenic; also recorded: induced strong immune responses	able to drive an effective immune response against the corresponding human peptide; also recorded: Cross-reactivity
ALYSEILTV [ANKRD30A-B1]	0.05	induced significant T cell responses; also recorded: strongly immunogenic; also recorded: induced strong immune responses	able to drive an effective immune response against the corresponding human peptide; also recorded: Cross-reactivity
KIIGIILAV [CDH17-B1]		induced significant T cell responses; also recorded: strongly immunogenic; also recorded: induced strong immune responses	able to drive an effective immune response against the corresponding human peptide; also recorded: Cross-reactivity
SLPDRILDA (listed as Homo sapiens) [CDC20-H1, reference compound]	4.57		Cross-reactivity
